Test [1] has as its system Domestic male landrace pigs. Nature of the test: Hemorrhagic shock in domestic pigs. It is filed as in vivo, pig. Here is the method:
Domestic male landrace pigs weighing 20-35 kg were fed a standard diet and received water ad libitum. All procedures were performed in concurrence with the AAALAC guidelines and according to the Guide for the Care of Laboratory Animals (Department of Health and Human Services, National Institutes of Health, Publication Nr. 86-23). Pigs were premedicated with azaperon (4 mg/kg). The ear vein was cannulated and the anesthetic propofol was applied. The animals were fully instrumented and equlibrated for 1 hr in order to recieve a stable baseline. Subsequently, the animals (n=16) were exsanguinated until a mean arterial pressure of 40 mm Hg was achieved. They were kept at this level constituting a hemorrhagic shock for 1 hr. After this time the lost blood volume was resubstituted with shed blood and salt solutions (cristalloids). In addition the animals received a bolus dose of the peptide Bβ15-42 (n=8) or a random sequence peptide (n=8) in a dose of […] each as a single intravenous bolus. During the ensuing reperfusion period over the duration of 5 hrs, Horrowitz index (measuring blood oxigenation), PEEP (positive end-expiratory pressure in mm Hg) and cardiac ejection volume were determined at various timepoints.
In the following tables the following timepoints were used:
• Timepoint 1: 1 hr before hemorrhagic shock • Timepoint 2: during hemorrhagic shock • Timepoint 3: 1 hr after the start of reperfusion • Timepoint 4: 3 hrs after the start of reperfusion • Timepoint 5: 5 hrs after the start of reperfusion

In test [2] the test system is human umbilical vein endothelial cells (HUVEC). Nature of the test: Inhibition of the release of interleukin-6 from endothelial cells. The note with it: 4 hrs. It is filed as cell-based. Here is the method:
In addition we have identified a specific assay for the determination of the claimed activity of the peptides, which consists of measurement of the inhibition of the release of interleukin-6 from endothelial cells. […] This assay is therefore also part of the invention.
96-well cell culture plates were coated with 1% gelatine. Into each well, approx. 23,000 human umbilical vein endothelial cells (HUVEC) in 200 μl of medium were pipetted. The HUVECs were taken from passage 4 form a pool of four different donors. The medium used for dilution was standard medium with 10% FCS, ECGS in Iscove's modified Dulbecco medium (Petzelbauer et al., J Immunol. 151:5062-5072, 1993). Within approx. 18 hrs at 37° C. in an incubator, a confluent cell monolayer is formed. The supernatant was removed and replaced with medium containing either NDSK-II alone or NDSK-II plus peptide Bβ15Δ([…]).
The total final volume was 200 μl. After 4 hrs of incubation at 37° C. under 5% CO2, the cell culture supernatant was again removed and centrifuged for 10 min at 4° C. at 3000 U/min. The concentration of interleukin-6 (IL-6) was measured using a commercial assay (IL-6 Quantikine Immonuassay (R&D Sytems; Catalog#: D6050; Lot: 231361). Calibration was done according to the standard protocol supplied by the assay manufacturer with various dilutions of recombinant IL-6 and medium. Readings of the optical density were taken at a wavelength of 450 nm with a reference wavelength of 550 nm.

The conditions of test [3]: in vivo, ischemia/reperfusion; WO 02/48180; cited from earlier work.
Test [4] deals with T1, recombinant human VE-cadherin FC fusion protein (Homo sapiens, UniProt P33151).
T1 construct: purchased R&D Systems, Minneapolis
T1 sequence (P33151 with tags, fused parts or gaps limits assumed): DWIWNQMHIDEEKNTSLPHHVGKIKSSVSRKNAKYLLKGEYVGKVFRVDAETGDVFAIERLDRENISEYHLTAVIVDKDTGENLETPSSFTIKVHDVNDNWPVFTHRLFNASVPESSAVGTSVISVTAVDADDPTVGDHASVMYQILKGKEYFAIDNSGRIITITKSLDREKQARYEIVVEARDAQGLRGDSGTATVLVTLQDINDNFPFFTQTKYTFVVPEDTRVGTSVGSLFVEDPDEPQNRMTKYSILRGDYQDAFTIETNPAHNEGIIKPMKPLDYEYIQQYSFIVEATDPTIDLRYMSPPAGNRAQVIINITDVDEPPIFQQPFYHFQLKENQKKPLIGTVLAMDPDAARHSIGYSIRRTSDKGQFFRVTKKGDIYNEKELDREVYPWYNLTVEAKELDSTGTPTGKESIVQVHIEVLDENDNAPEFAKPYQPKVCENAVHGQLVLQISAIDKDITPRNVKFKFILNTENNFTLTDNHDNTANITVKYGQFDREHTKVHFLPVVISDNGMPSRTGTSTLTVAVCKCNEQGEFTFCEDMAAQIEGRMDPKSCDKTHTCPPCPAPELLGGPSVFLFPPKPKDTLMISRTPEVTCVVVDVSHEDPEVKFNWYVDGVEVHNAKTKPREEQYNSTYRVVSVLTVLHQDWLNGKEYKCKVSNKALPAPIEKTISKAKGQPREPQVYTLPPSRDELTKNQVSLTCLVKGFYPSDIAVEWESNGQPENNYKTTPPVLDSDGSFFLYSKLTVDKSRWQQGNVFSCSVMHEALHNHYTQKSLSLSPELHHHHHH
Nature of the test: ELISA: binding of FLAG-tagged peptide to coated VE-cadherin. The note with it: VE-cadherin coated 8 nM/ml. The text has this:
We have developed a modified ELISA working with the same principles described by others, but the purpose of the herein described ELISA is not to quantify fibrin degradation products, but to search for proteins, peptides or compounds which interfere with the binding of the Bbeta15-42 sequence and the VE-cadherin. […] Into this system one can introduce any other additional substance and measure if this substance inhibits VE-cadherin/Bbeta15-42 binding.
In detail, 96 well protein immobilizer plates (Exiqon, Vedbaek, DK) were coated with recombinant human VE-cadherin FC fusion protein (8 nM/ml; R&D Systems, Minneapolis) in PBS and were left overnight at 4° C. Plates were then washed and incubated with peptide Bβ15-42 ([…]) tagged with a FLAG-sequence (DYKDDDDK) at the C-terminus of the peptide or with a FLAG-tagged random peptide ([…]) at a concentration of 0-80 μMol/ml. After washing, bound FLAG-tagged peptide was detected by incubation with a peroxidase-labelled anti-FLAG antibody (Sigma, St. Louis, USA) and chromogenic substrate. Optical density was determined by an ELISA plate reader set at a wavelength of 450 nm. Data represent the mean of three independent experiments, each performed in triplicates.

[5] abbreviates: Timepoint 1: 1 hr before hemorrhagic shock (before dosing).
Setting [6] is: Timepoint 2: during hemorrhagic shock (before dosing).
Setting [7] is: Timepoint 3: 1 hr after the start of reperfusion, 2.4 mh/kg single intravenous bolus.
[8] abbreviates: Timepoint 4: 3 hrs after the start of reperfusion, 2.4 mh/kg single intravenous bolus.
Where [9] appears, read: Timepoint 5: 5 hrs after the start of reperfusion, 2.4 mh/kg single intravenous bolus.

As for “GHRPLDKKREEAPSLRPAPPPISGGGYR [peptide Bβ15-42, peptide matching amino acids 15-42 of the Bβ chain of human fibrin]”, the “EV (cardiac ejection volume)” value stood at 44 ± 2 mL in test [1] (setting [5]); 6 ± 1 mL in test [1] (setting [6]); 31 ± 4 mL in test [1] (setting [7]); 32 ± 3 mL in test [1] (setting [8]); 37 ± 4 mL in test [1] (setting [9]). Moreover, the “Horrowitz Index (blood oxigenation)” value in test [1] (setting [5]) was 465 +/− 20; in test [1] (setting [6]), 450 +/− 20; in test [1] (setting [7]), 420 +/− 10; in test [1] (setting [8]), 410 +/− 20; in test [1] (setting [9]), 420 +/− 30. The “PEEP (positive end-expiratory pressure)” value in test [1] (setting [5]) is 4 +/− 0.1 mmHg; in test [1] (setting [6]), 4 +/− 0.1 mmHg; in test [1] (setting [7]), 4.1 +/− 0.2 mmHg; in test [1] (setting [8]), 4.2 +/− 0.3 mmHg; in test [1] (setting [9]), 4.3 +/− 0.2 mmHg. For the same substance, the IL-6 concentration in test [2] (0.3 μg/ml NDSK-II + 10 μg/ml peptide) is 15 ± 2 pg/mL; in test [2] (3 μg/ml NDSK-II + 10 μg/ml peptide), 12 ± 3(p < 0.05 cmpd with pg/ml; in test [2] (30 μg/ml NDSK-II + 10 μg/ml peptide), 13 ± 1(p < 0.05 cmpd with pg/ml. Besides, the “myocardial infarct size (in words)” value in test [3] is “reduces myocardial infarct sizes”.

Take “15-42 FLAG: peptide Bβ15-42 (GHRPLDKKREEAPSLRPAPPPISGGGYR) tagged with a FLAG-sequence (DYKDDDDK) at the C-terminus (GHRPLDKKREEAPSLRPAPPPISGGGYRDYKDDDDK)”: the “binding to VE-cadherin, optical density (450 nm), mean” value was 0.01 in test [4] (FLAG-tagged peptide 0.23 μM/ml); 0.02 in test [4] (FLAG-tagged peptide 0.7 μM/ml); 0.08 in test [4] (FLAG-tagged peptide 2.3 μM/ml); 0.33 in test [4] (FLAG-tagged peptide 7 μM/ml); 0.92 in test [4] (FLAG-tagged peptide 14 μM/ml); 1.3 in test [4] (FLAG-tagged peptide 21 μM/ml). In addition, the “binding to VE-cadherin, optical density (450 nm), mean” value in test [4] (FLAG-tagged peptide 35 μM/ml) came to 1.5; in test [4] (FLAG-tagged peptide 46 μM/ml), 1.93; in test [4] (FLAG-tagged peptide 70 μM/ml) it was 2.1.

Source of the values: patent US7897574B2, “Pharmaceutical composition for treating haemorrhagic shock and its consecutive symptoms” (Ikaria Development Subsidiary Two LLC, priority 2005, dated 2011).
